Values of other authors as cited in patent US20130220225A1, “BAITING METHOD AND COMPOSITION” (priority 2008, published 2013).
Like-named read-outs stand apart in the source and are kept apart here.

What was measured:
[1] = system: Starling (Sturnus vulgaris); details: Oral
[2] = system: Badger (Nth Am.) (Taxidea taxus); details: Oral
[3] = system: Brushtail Possum (Trichosaurus vulpecula); details: Oral
Coyote (Canis latrans) = details: Oral
[4] = system: Mallard (duck) (Anas platyrhrynchos); details: Oral
[5] = system: Quail (Coturnix coturnix); details: Oral
[6] = system: Magpie (black-billed) (Pica pica); details: Oral
[7] = system: Cat (Fellis libyca domestica); details: Oral
[8] = system: Tammar wallaby (Macropus eugenii); details: Oral
Fox (kit) (Vulpes velox) = details: Oral
[9] = system: Ferret (Mustela putoris furo); details: Oral
Raccoon (Procyon lotor) = details: Oral
[10] = system: Eagle (Aquila chrysaetos); details: Oral
Stoats (Mustela erminea) = details: Oral
[11] = system: Rat (male) (Rattus norvegicus); details: Oral
[12] = system: Skunk (Mephitis mephitis); details: Oral
[13] = system: Guinea pig (female) (Cavellio porcinus); details: Oral
[14] = system: Blackbird (red-wing) (Agelaius phoenicus); details: Oral
Bobcat (Lynx rufus) = details: Oral
[15] = system: Crow (Corvus brachyrhynchos); details: Oral

For `CCC(=O)c1ccc(N)cc1` [p-aminopropiophenone], the LD50 [1] is listed as greater than 316 mg/kg, the LD50 [2] is listed as 100 mg/kg and the LD50 [3] is listed as 500 mg/kg. The LD50 (Coyote (Canis latrans)) was 5.6 mg/kg, the LD50 [4] was 38 mg/kg and the LD50 [5] was greater than 316 mg/kg. The LD50 [6] was 178 mg/kg, the LD50 [7] was 5.6 mg/kg and the LD50 [8] was 89 mg/kg. The LD50 (Fox (kit) (Vulpes velox)) was 14.1 mg/kg, the LD50 [9] was 29 mg/kg and the LD50 (Raccoon (Procyon lotor)) was 142 mg/kg. For the same compound, the LD50 (Mouse (Mus domesticus); Mouse (female), I.V.) was 200 mg/kg, the LD50 (Mouse (Mus domesticus); Mouse (female), Oral) was >5,000 mg kg^−1 and the LD50 (Mouse (Mus domesticus); Mouse (male), I.V.) was 145 mg/kg. The LD50 (Mouse (Mus domesticus); Mouse (sex not given), Oral) was 233 mg/kg, the LD50 [10] was greater than 50 mg/kg and the LD50 (Stoats (Mustela erminea)) was 9.3 mg/kg. The LD50 [11] was 177 mg/kg, the LD50 [12] was greater than 400 mg/kg and the LD50 [13] was 1020 mg/kg. The LD50 [14] was 133 mg/kg, the LD50 (Bobcat (Lynx rufus)) was 10 mg/kg and the LD50 [15] was greater than 178 mg/kg.
